Assay results: ChEMBL document CHEMBL3414554, “Novel 1-(2-aryl-2-adamantyl)piperazine derivatives with antiproliferative activity” (Eur J Med Chem, 2015)

Assays:
[1] = system: HeLa; assay: Cytotoxicity against human HeLa cells after 24 hrs by MTT colorimetric assay; type: functional, cell-based
[2] = system: MDA-MB-231; assay: Cytotoxicity against human MDA-MB-231 cells after 24 hrs by MTT colorimetric assay; type: functional, cell-based; conditions: MDA-MB-231, 24 h
[3] = Cytotoxicity against human MIAPaCa2 cells after 24 hrs by MTT colorimetric assay; type: functional, cell-based; conditions: MIA PaCa-2, 24 h
[4] = system: NCI-H1975; assay: Cytotoxicity against human NCI-H1975 cells after 24 hrs by MTT colorimetric assay; type: functional, cell-based; conditions: NCI-H1975, 24 h
[5] = system: HUVEC; assay: Cytotoxicity against HUVEC cells after 48 hrs by SRB staining assay; type: cell-based; conditions: human
[6] = system: NHDF; assay: Cytotoxicity against NHDF cells after 48 hrs by SRB staining assay; type: cell-based; conditions: human
[7] = molecular target: Sigma non-opioid intracellular receptor 1 (Homo sapiens, UniProt Q99720); assay: Displacement of [3H]-(+)-pentazocine from sigma-1 receptor in human Jurkat cell membrane by liquid scintillation spectrometry; type: cell membranes
[8] = Displacement of [3H]-DTG from sigma-2 receptor in rat cerebral cortex membranes in presence of (+)-pentazocine by liquid scintillation spectrometry; type: cell membranes, Membrane
[9] = system: Jurkat; assay: Selectivity ratio of IC50 for sigma-2 receptor in rat cerebral cortex membranes to IC50 for sigma-1 receptor in human Jurkat cell membrane; type: cell-based
[10] = Displacement of [3H]BTX-B from neuronal Na+ channel in male Sprague-Dawley rat brain synaptosomal membrane vesicles by liquid scintillation spectrometry; type: tissue-based

Sequence of Sigma non-opioid intracellular receptor 1 (Q99720 whole entry): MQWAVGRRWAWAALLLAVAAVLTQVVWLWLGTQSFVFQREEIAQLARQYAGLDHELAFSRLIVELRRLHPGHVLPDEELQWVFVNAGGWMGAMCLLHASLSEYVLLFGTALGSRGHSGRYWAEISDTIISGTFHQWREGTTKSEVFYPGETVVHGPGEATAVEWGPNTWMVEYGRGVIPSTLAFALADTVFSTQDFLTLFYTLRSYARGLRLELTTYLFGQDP

Compound | IC50 [1] [µM] | IC50 [2] [µM] | IC50 [3] [µM] | IC50 [4] [µM] | LC50 [5] [µM] | LC50 [6] [µM] | IC50 [7] [µM] | IC50 [8] [µM] | Ratio IC50 [9] | IC50 [10] [µM]
CCOC(=O)N1CCN(C2(c3ccc(F)cc3)C3CC4CC(C3)CC2C4)CC1 (centres undefined) | 14.5 | 21 | 18.5 | 17.5 | – | – | – | – | – | –
CCOC(=O)N1CCN(C2(c3ccccc3)C3CC4CC(C3)CC2C4)CC1 (centres undefined) | 23 | 28 | 25.4 | 24.2 | > 100 | 100 | – | – | – | –
O=C(CN1CCCCC1)N1CCN(C2(c3ccccc3)C3CC4CC(C3)CC2C4)CC1 (centres undefined) | 12.4 | 11.4 | 12.2 | 16.3 | 60.35 | 58.43 | 0.135 | 3.34 | 24.7 | 2.44
Fc1ccc(C2(N3CCNCC3)C3CC4CC(C3)CC2C4)cc1.O=C(O)/C=C\C(=O)O (centres undefined) | 12.9 | 14.6 | 11.7 | 12.8 | > 100 | 93.66 | – | – | – | –
Nc1ccn([C@@H]2O[C@H](CO)[C@@H](O)C2(F)F)c(=O)n1 [GEMCITABINE] | 3.3 | 0.19 | 0.6 | – | – | – | – | – | – | –
O=C(c1ccc(Cl)s1)N1CCN(C2(c3ccccc3)C3CC4CC(C3)CC2C4)CC1 (centres undefined) | 12.8 | 11.4 | 12.4 | 12.7 | – | – | – | – | – | –
O=C(CN1CCCCC1)N1CCN(C2(c3ccc(F)cc3)C3CC4CC(C3)CC2C4)CC1 (centres undefined) | 8.4 | 6.8 | 14.6 | 12.7 | 88.78 | 85.26 | – | – | – | –
O=C(O)/C=C\C(=O)O.c1ccc(C2(N3CCNCC3)C3CC4CC(C3)CC2C4)cc1 (centres undefined) | 9.2 | 8.4 | 12.3 | 17.3 | 95.45 | 90 | – | – | – | –
CN1CCN(C2(c3ccccc3)C3CC4CC(C3)CC2C4)CC1 (centres undefined) | 17.4 | 17.4 | 19.5 | 18.7 | – | – | – | – | – | –
O=C(N1CCN(C2(c3ccccc3)C3CC4CC(C3)CC2C4)CC1)n1ccnc1 (centres undefined) | 12.2 | 13.5 | 13.5 | 10.5 | > 100 | 98.16 | – | – | – | –
CN1CCN(C2(c3ccc(F)cc3)C3CC4CC(C3)CC2C4)CC1 (centres undefined) | 15.3 | 15.7 | 16.6 | 14.6 | – | – | – | – | – | –
